Legend:
[1] = cited from earlier work
[2] = target: T1, PAD1 (Homo sapiens, UniProt Q9ULC6); assay: Inactivation kinetics, PAD1; format: biochemical; conditions: for kinact/KI: a: single kobs determined, b: from a linear fit; for Fold PAD1 Selectivity: kinact/KI relative to least inhibited isozyme (1.0)
T1 construct: made in house
T1 sequence (Q9ULC6 1-663): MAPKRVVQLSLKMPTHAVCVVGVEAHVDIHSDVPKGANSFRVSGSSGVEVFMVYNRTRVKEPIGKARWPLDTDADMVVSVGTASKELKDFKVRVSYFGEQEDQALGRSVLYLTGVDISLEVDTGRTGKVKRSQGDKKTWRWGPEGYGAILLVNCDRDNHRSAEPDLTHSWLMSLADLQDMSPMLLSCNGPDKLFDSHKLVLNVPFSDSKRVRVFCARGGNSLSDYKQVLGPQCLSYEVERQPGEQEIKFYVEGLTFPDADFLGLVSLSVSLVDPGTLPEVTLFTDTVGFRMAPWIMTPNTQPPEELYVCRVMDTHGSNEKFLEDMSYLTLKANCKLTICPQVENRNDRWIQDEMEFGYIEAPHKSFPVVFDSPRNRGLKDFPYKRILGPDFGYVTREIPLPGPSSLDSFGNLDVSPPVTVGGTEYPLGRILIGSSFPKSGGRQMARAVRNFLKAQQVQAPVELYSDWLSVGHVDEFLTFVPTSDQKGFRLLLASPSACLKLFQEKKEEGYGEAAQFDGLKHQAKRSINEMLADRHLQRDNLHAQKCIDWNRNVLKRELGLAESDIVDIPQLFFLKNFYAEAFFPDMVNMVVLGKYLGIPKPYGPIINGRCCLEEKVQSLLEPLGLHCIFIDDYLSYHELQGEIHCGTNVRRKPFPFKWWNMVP
Summary of the method: (§1)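 PAD1, 2 or 4 (2.0 μM) or PAD3 (5.0 μM) preincubated at 37 °C with varying inhibitor in 50 mM HEPES, 10 mM CaCl2, 2 mM DTT, pH 7.6. Timed aliquots assayed 15 min with 10 mM BAEE (BAA for PAD3); citrulline quantified by COLDER.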

[3] = target: T2, PAD2 (Homo sapiens, UniProt Q9Y2J8); assay: In vitro labeling of PAD2 with clickable probes to determine limit of detection; format: binding; conditions: probe clicked with TAMRA-N3
T2 construct: made in house
Experimental: In Vitro Labeling o f PAD2 with BB-F-Yne (5u) and BB-C-Yne (5v) to Determine their Limit of detection (LOD)
BB-F-Yne (5u) or BB-Cl-Yne (5v) (10 μM) were incubated with decreasing concentrations of recombinant PAD2 (1.0 to 0.025 μM) in the presence of CaCl2 in 1×PBS (2 mM) at 37° C. for 1 h. The probe labeled enzymes were coupled to TAMRA-N3 (20 μM) in the presence of 1×TBTA (0.31 mM), sodium ascorbate (2 mM) and freshly prepared CuSO4 (1 mM). The tubes were gently tumbled for 1 h. […] The bands were visualized by scanning the gel in a typhoon scanner (approximate excitation/emission maxima 546/579, respectively).

[4] = target: T2, PAD2; assay: Inactivation kinetics, PAD2; format: biochemical; conditions: for kinact/KI: a: single kobs determined, b: from a linear fit, other footnotes: from kinact and KI; for Fold PAD2 Selectivity: kinact/KI relative to least inhibited isozyme (1.0)
Summary of the method: as §1

[5] = target: T3, PAD4 (Homo sapiens, UniProt Q9UM07); assay: Inactivation kinetics, PAD4; format: biochemical; conditions: for kinact/KI: a: single kobs determined, b: from a linear fit; for Fold PAD4 Selectivity: kinact/KI relative to least inhibited isozyme (1.0)
T3 construct: made in house
Summary of the method: as §1

[6] = target: T4, PAD3 (Homo sapiens, UniProt Q9ULW8); assay: Inactivation kinetics, PAD3; format: biochemical; conditions: for kinact/KI: a: single kobs determined; for Fold PAD3 Selectivity: kinact/KI relative to least inhibited isozyme (1.0)
T4 construct: made in house
T4 sequence (Q9ULW8 1-664): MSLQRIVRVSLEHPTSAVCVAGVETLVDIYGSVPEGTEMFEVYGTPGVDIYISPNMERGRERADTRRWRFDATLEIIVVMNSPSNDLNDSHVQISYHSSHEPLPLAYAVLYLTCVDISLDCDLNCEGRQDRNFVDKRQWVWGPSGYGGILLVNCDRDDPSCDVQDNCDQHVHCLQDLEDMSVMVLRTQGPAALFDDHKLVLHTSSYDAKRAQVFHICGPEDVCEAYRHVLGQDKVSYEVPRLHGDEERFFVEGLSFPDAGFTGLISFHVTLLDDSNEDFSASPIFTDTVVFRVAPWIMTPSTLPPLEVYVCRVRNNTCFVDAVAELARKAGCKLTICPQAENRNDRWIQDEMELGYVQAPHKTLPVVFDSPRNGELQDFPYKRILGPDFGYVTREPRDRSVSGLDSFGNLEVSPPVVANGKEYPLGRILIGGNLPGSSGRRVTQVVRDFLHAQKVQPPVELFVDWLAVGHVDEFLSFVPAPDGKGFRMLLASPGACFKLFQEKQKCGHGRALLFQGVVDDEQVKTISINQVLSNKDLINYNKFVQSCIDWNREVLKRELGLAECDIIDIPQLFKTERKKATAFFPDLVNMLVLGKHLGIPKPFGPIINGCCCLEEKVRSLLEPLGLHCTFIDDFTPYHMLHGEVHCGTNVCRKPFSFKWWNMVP
Summary of the method: as §1

T3 sequence (Q9UM07 whole entry): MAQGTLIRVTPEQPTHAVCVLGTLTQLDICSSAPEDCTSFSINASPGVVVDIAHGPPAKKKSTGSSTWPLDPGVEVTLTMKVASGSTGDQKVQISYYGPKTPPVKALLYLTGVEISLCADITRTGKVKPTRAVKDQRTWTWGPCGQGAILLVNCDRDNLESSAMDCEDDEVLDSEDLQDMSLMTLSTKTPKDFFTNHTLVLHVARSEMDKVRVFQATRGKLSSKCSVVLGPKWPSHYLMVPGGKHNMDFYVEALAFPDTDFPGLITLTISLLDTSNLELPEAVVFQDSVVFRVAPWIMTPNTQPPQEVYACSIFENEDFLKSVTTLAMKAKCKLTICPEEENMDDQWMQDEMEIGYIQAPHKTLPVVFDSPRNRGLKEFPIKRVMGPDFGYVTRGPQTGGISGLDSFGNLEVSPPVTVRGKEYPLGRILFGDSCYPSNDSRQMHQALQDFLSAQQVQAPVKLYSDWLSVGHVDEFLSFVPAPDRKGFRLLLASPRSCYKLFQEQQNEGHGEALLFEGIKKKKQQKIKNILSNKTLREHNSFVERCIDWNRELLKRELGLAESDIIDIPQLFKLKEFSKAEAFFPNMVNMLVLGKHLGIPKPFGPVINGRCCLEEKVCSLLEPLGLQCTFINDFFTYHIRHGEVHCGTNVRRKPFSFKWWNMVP
T2 sequence (Q9Y2J8 whole entry): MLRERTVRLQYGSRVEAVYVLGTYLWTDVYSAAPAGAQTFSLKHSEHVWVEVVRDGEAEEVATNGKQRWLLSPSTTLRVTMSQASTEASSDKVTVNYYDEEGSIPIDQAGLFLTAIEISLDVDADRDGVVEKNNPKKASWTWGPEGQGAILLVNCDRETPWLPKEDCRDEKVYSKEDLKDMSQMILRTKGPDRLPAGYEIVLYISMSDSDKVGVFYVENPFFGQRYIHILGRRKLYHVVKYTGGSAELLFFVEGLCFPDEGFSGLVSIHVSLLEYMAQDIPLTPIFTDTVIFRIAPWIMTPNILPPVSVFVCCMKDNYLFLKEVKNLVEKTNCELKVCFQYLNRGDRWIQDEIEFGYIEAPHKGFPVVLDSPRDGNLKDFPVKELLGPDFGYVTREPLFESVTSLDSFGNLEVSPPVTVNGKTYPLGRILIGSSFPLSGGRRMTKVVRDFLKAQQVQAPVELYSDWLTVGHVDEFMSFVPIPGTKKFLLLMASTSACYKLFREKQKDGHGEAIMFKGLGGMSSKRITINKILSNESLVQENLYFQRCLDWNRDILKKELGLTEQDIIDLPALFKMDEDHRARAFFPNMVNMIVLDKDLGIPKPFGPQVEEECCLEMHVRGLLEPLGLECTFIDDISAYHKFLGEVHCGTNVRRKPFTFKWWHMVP

Row | Compound | efficacy in an RA model ([1]; in vivo) | kinact/KI [2] [M⁻¹ s⁻¹] | Fold PAD1 Selectivity [2] [fold] | limit of detection (LOD) for PAD2 [3] [fmol] | kinact/KI [4] [M⁻¹ s⁻¹] | Fold PAD2 Selectivity [4] [fold] | kinact/KI [5] [M⁻¹ s⁻¹] | Fold PAD4 Selectivity [5] [fold] | kinact/KI [6] [M⁻¹ s⁻¹] | Fold PAD3 Selectivity [6] [fold] | efficacy in animal models ([1]; rheumatoid arthritis, lupus, ulcerative colitis, spinal cord injury, breast cancer, atherosclerosis) | Ki ([4]; PAD2, table footnote) [µM] | kinact ([4]; PAD2, table footnote) [s⁻¹]
1 | GSK199 | shows efficacy | – | – | – | – | – | – | – | – | – | – | – | –
2 | C#Cc1ccc(-c2ccc(C(=O)N[C@@H](CCCNC(=N)CF)c3nc4ccccc4[nH]3)cc2)cc1 [Compound 5u, N1-4′-ethynyl-[1,1′-Phenyl]benzol-N5-(2-fluoro-1-iminoethyl)-1-(1H-benzo[d]imidazol-2-yl)-L-ornithine] | – | 77.5 | 4.8 | 375 | 16.2 | 1.0 | 29.5 | 1.8 | 17.1 | 1.1 | – | – | –
3 | N=C(CCl)NCCC[C@H](NC(=O)c1ccccc1)C(N)=O [Cl-amidine] | – | – | – | – | – | – | – | – | – | – | demonstrated efficacy | – | –
4 | Cn1c([C@H](CCCNC(=N)CF)NC(=O)c2ccccc2C(=O)O)nc2ccccc21 [Compound 6c, N1-(2-Carboxyl)benzoyl-N5-(2-fluoro-1-iminoethyl)-1-(1-methyl-benzo[d]imidazol-2-yl)-L-ornithine] | – | 538 | 40 | – | 197 | 15 | 13.3 | 1.0 | 17.2 | 1.3 | – | – | –
5 | CCn1c([C@H](CCCNC(=N)CCl)NC(=O)c2ccccc2C(=O)OC(C)(C)C)nc2ccccc21 [Compound 9d, N1-(2-tert-butylcarboxy)benzoyl-N5-(2-chloro-1-iminoethyl)-1-(1-ethyl-benzo[d]imidazol-2-yl)-L-ornithine] | – | 200 | 9.3 | – | 152 | 7.0 | 21.7 | 1.0 | 78.3 | 3.6 | – | – | –
6 | CCN1Cc2cccc(C(=O)N[C@@H](CCCNC(=N)CF)c3nc4c(OC)cccc4n3C)c2C1=O [Compound 8k, N1-(2-ethyl-3-oxoisoindoline)benzoyl-N5-(2-fluoro-1-iminoethyl)-1-(4-methoxy-1-methyl-benzo[d]imidazol-2-yl)-L-ornithine] | – | 1180 | 16 | – | 6090 | 85 | 71.7 | 1.0 | 72 | 1.0 | – | 5.3 | 0.0323
7 | Cn1c([C@H](CCCNC(=N)CCl)NC(=O)c2ccccc2C(=O)O)nc2ccccc21 [Compound 6d, N1-(2-Carboxyl)benzoyl-N5-(2-chloro-1-iminoethyl)-1-(1-methyl-benzo[d]imidazol-2-yl)-L-ornithine] | – | 537 | 4.3 | – | 240 | 1.9 | 130 | 1.0 | 125 | 1.0 | – | – | –

From US11208386B2, “Inhibitors of protein arginine deiminases (PADs) and methods of preparation and use thereof” (University of Massachusetts, priority 2016, dated 2021)
